Patent US7879315B2, “Agent for dissolving dental calculi and dental caries” (Showa Yakuhin Kako Co., Ltd., priority 2002, dated 2011)

Assay: Dissolution of dental calculus by immersion (weight after treatment)

For `O=C(O)CC(O)C(=O)O` (stereo not shown) [malic acid], the “weight of dental calculus after the treatment” value (from here on “weight of dental calculus”) (1.2 mg calculus immersed 13 minutes in 1 ml of 10% aqueous solution) was 0.6 mg.
In the case of `O=C([O-])CN(CCN(CC(=O)[O-])CC(=O)O)CC(=O)O.[Na+].[Na+]` [disodium edetate], the “weight of dental calculus” value (0.50 mg calculus immersed 44 minutes in 1 ml of 14.3% solution) is reported as 0.25 mg.
With `O=P(O)(O)O[C@H]1[C@H](OP(=O)(O)O)[C@@H](OP(=O)(O)O)[C@H](OP(=O)(O)O)[C@@H](OP(=O)(O)O)[C@H]1OP(=O)(O)O` [phytic acid] the “weight of dental calculus” value (3.0 mg calculus immersed 5 minutes in 1 ml aqueous solution containing 0.5 g phytic acid (15% aqueous solution)) was 2.6 mg and the “weight of dental calculus” value (3.0 mg calculus immersed 10 minutes in 1 ml aqueous solution containing 0.5 g phytic acid (15% aqueous solution)) was 2.1 mg.
With `O=C(O)CC(O)(CC(=O)O)C(=O)O` [citric acid] the “weight of dental calculus” value (1.3 mg calculus immersed 13 minutes in 1 ml of 10% aqueous solution) was 0.65 mg.
In the case of `O=P(O)(O)O` [phosphoric acid], the “weight of dental calculus” value (1.2 mg calculus immersed 7 minutes and 30 seconds in 1 ml of 10% aqueous solution) is reported as 0.6 mg and the “weight of dental calculus” value (1.4 mg calculus immersed 8 minutes and 30 seconds in 1 ml of 2% aqueous solution) is reported as 0.7 mg.
In the case of `O=P(O)(O)OP(=O)(O)O` [pyrophosphoric acid], the “weight of dental calculus” value (2.2 mg calculus immersed 7 minutes in 1 ml of 10% aqueous solution) is reported as 1.1 mg.
With polyphosphoric acid the “weight of dental calculus” value (1.5 mg calculus immersed 7 minutes and 30 seconds in 1 ml of 10% aqueous solution) was 0.7 mg.
For `O=C(O)CO` [glycolic acid], the “weight of dental calculus” value (0.9 mg calculus immersed 9 minutes in 1 ml of 10% aqueous solution) was 0.5 mg.
